Laboratory results: patent US4448714A, “Antibiotic polypeptide compounds prepared from staphlococcus bacteria” (priority 1979, dated 1984)

Tested on: S. Epidermidis NCIB 11536
Assay: Antibiotic sensitivities of the producer strain (disc)
Format: cell-based
Conditions: 5 μg disc; strain characteristics table

CO[C@@H]1[C@@H](OC(N)=O)[C@@H](O)[C@H](Oc2ccc3c(O)c(NC(=O)c4ccc(O)c(CC=C(C)C)c4)c(=O)oc3c2C)OC1(C)C [novobiocin]
Novobiocin sensitivity: sensitive
